Experiments:
[1] = test system: MCF7; experiment: Antiproliferative activity against human MCF7 cells assessed as reduction in cell viability incubated for 48 hrs by MTT assay; format: functional, cell-based; settings: MCF7, 48 h
[2] = test system: HT-29; experiment: Antitumor activity against human HT-29 cells xenografted in BALB/c mouse assessed as reduction in tumor growth at 50 mg/kg, po administered once daily for 14 days relative to control; format: functional; settings: HT-29, 336 h, time 14 day, read-out: TGI
[3] = test system: HT-29; experiment: Antitumor activity against human HT-29 cells xenografted in BALB/c mouse assessed as reduction in tumor growth at 50 mg/kg, ip administered once daily for 14 days relative to control; format: functional; settings: HT-29, 336 h, time 14 day, read-out: TGI
[4] = test system: B16-F10; experiment: Antitumor activity against mouse B16-F10 cells implanted in C57BL/6 mouse assessed tumor growth inhibition at 2.5 mg/kg, ip measured for 14 days relative to control; format: functional; settings: B16-F10, 336 h, time 14 day, read-out: TGI
[5] = test system: B16-F10; experiment: Antiproliferative activity against mouse B16-F10 cells assessed as reduction in cell proliferation incubated for 4 days by crystal violet based assay; format: functional; settings: B16-F10, 96 h
[6] = test system: MDA-MB-231; experiment: Antiproliferative activity against human MDA-MB-231 cells assessed as reduction in cell viability incubated for 48 hrs by MTT assay; format: functional, cell-based; settings: MDA-MB-231, 48 h
[7] = test system: COLO357; experiment: Inhibition of cell growth in human COLO357 cells incubated for 72 hrs by MTT assay; format: functional, cell-based; settings: COLO357, 72 h
[8] = test system: MIA PaCa-2; experiment: Antiproliferative activity against human MIA PaCa-2 cells measured after 72 hrs by MTT assay; format: functional, cell-based; settings: MIA PaCa-2, 72 h
[9] = test system: PANC-1; experiment: Anticancer activity against human PANC-1 cells assessed as reduction in cell viability by measuring ATP level incubated for 24 hrs by CellTiter-Glo assay; format: functional, cell-based; settings: PANC-1, 24 h
[10] = test system: Panc02; experiment: Antiproliferative activity against mouse Panc02 cells measured after 72 hrs by MTT assay; format: functional, cell-based; settings: Panc02, 72 h
[11] = target: Vascular endothelial growth factor receptor 1 (Homo sapiens, UniProt P17948); experiment: Inhibition of VEGFR1 (unknown origin)
Chain of Vascular endothelial growth factor receptor 1 (P17948 whole entry): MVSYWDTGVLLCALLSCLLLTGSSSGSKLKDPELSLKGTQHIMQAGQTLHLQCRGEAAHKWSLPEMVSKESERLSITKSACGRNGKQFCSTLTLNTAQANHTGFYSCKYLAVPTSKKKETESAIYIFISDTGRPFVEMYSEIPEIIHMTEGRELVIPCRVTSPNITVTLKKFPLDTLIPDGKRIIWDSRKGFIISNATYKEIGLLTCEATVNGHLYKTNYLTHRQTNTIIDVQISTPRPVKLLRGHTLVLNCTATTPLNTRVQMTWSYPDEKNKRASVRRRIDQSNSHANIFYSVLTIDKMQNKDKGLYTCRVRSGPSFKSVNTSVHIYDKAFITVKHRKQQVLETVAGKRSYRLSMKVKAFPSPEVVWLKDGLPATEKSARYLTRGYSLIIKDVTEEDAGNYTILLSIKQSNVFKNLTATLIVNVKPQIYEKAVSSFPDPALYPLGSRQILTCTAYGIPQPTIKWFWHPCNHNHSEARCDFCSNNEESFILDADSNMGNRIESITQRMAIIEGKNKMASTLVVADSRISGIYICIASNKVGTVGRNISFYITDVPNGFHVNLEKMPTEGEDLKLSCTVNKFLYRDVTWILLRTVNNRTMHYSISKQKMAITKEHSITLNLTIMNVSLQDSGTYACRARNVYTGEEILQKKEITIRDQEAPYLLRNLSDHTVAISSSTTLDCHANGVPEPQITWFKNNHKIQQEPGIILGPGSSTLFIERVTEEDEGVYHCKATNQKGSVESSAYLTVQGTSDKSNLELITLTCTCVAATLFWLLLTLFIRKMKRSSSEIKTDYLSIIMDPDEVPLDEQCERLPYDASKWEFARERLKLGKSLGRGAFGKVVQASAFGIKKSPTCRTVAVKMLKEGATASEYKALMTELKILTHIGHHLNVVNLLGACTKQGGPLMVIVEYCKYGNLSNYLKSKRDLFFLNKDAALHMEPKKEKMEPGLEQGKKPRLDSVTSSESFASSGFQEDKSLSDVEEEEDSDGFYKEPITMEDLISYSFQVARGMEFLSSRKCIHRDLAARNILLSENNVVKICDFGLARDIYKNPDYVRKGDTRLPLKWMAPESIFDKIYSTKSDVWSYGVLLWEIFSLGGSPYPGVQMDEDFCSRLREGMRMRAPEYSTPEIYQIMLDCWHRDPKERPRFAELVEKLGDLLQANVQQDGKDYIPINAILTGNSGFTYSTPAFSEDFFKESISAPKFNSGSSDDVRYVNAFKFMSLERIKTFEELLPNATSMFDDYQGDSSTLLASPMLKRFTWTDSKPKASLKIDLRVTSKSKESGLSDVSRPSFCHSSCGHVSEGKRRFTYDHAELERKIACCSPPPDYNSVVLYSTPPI

[12] = target: Vascular endothelial growth factor receptor 2 (Homo sapiens, UniProt P35968); experiment: Inhibition of VEGFR2 (unknown origin)
Chain of Vascular endothelial growth factor receptor 2 (P35968 whole entry): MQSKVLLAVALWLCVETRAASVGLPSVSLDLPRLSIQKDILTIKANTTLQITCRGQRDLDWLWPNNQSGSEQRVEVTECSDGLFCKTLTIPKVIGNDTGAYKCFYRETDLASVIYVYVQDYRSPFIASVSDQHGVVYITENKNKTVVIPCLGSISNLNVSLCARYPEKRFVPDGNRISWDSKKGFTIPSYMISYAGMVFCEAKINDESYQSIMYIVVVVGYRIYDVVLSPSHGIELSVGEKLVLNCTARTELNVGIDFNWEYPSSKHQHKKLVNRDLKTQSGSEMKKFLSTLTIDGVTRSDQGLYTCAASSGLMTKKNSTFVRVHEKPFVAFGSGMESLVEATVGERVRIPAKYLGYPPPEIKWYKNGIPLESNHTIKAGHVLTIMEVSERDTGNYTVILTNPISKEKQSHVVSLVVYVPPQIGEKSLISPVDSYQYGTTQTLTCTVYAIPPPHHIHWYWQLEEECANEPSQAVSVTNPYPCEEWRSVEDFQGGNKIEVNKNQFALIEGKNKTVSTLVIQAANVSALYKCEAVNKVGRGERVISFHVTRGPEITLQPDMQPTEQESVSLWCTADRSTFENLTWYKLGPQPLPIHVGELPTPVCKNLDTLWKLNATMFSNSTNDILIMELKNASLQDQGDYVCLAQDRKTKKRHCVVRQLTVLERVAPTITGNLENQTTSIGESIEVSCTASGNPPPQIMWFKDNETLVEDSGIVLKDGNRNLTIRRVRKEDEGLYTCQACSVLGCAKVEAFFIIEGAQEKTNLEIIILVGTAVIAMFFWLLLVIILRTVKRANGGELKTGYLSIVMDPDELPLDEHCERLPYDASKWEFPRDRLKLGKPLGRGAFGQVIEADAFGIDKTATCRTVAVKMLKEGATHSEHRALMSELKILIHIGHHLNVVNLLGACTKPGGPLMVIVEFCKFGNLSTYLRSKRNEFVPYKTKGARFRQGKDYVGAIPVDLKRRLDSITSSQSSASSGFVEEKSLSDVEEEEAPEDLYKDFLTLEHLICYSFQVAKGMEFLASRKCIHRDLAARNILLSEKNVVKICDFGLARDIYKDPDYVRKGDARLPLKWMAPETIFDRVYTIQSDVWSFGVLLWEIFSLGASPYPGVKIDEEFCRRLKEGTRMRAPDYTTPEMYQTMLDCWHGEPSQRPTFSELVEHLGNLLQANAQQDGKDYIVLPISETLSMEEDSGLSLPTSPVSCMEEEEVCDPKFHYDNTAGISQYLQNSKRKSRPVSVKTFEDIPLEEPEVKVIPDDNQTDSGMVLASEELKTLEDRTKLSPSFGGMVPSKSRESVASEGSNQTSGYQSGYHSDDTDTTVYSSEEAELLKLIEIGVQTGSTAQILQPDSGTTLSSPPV

[13] = test system: SNU-16; experiment: Antiproliferative activity against human SNU-16 cells assessed as reduction in cell viability by SRB assay; format: functional, cell-based
[14] = test system: KG-1; experiment: Antiproliferative activity against human KG-1 cells assessed as reduction in cell viability by SRB assay
[15] = test system: NCI-H1581; experiment: Antiproliferative activity against human NCI-H1581 cells assessed as reduction in cell viability by SRB assay; format: functional, cell-based
[16] = Antiproliferative activity against human UMUC14 cells assessed as reduction in cell viability by SRB assay; format: functional, cell-based
[17] = Cmax in CD-1 mouse at 3 mg/kg, ip measured after 24 hrs by LC-MS/MS analysis; format: ADME, organism-based; settings: in vivo
[18] = AUC (0 to infinity) in CD-1 mouse at 3 mg/kg, ip measured after 24 hrs by LC-MS/MS analysis; format: ADME, organism-based; settings: in vivo
[19] = Half life in CD-1 mouse at 3 mg/kg, ip measured after 24 hrs by LC-MS/MS analysis; format: ADME, organism-based; settings: in vivo
[20] = test system: NCI-H1581; experiment: Antitumor activity against human NCI-H1581 cells xenografted in BALB/c nude mouse assessed as tumor growth inhibition once daily at 50 mg/kg, ip for 24 days relative to control; settings: NCI-H1581, 576 h, read-out: TGI
[21] = test system: NCI-H1581; experiment: Antitumor activity against human NCI-H1581 cells xenografted in BALB/c nude mouse assessed as tumor growth inhibition once daily at 10 mg/kg, ip for 24 days relative to control; settings: NCI-H1581, 576 h, read-out: TGI

## Cc1ccc(C2CC(c3ccc(F)cc3)=NN2C(=O)CN2C(=O)CCC2=O)cc1 (stereo unspecified)
[1]
  IC50: 780 nM
[2]
  inhibition in vivo at 50 mg/kg: 60%
[3]
  inhibition in vivo at 50 mg/kg: 66%

## Clc1ccccc1C(c1ccccc1)(c1ccc(CCC[P+](c2ccccc2)(c2ccccc2)c2ccccc2)cc1)n1cccn1 (stereo unspecified)
[4]
  inhibition in vivo at 2.5 mg/kg: 60%
[5]
  IC50: 1310 nM
[6]
  IC50: 1310 nM
[7]
  IC50: 1310 nM
[8]
  IC50: 1310 nM
[9]
  IC50: 1310 nM
[10]
  IC50: 1310 nM

## Cc1ccc2oc(-c3c4c(N)n[nH]c(=O)c4nn3-c3ccc(NC(=O)/C=C/CN(C)C)cc3)c(C)c2c1
[11]
  IC50: 3 nM
[12]
  IC50: 1.9 nM
[13]
  IC50: < 0.3 nM
[14]
  IC50: 43 nM
[15]
  IC50: 43 nM
[16]
  IC50: 43 nM
[17]
  Cmax: 282 ng/mL
[18]
  AUC: 704 ng·h/mL
[19]
  half-life: 3.7 h
[20]
  inhibition in vivo at 50 mg/kg: 91.6%
[21]
  inhibition in vivo at 10 mg/kg: 74.4%

Source: ChEMBL document CHEMBL5620346, “Current scenario of pyrazole hybrids with in vivo therapeutic potential against cancers” (Eur J Med Chem, 2023)
